The target of assay [1] is C-C chemokine receptor type 6 (Homo sapiens, UniProt P51684). The experiment in a line: antagonism of CCR6 beta-arrestin recruitment – cell-based, luminescent beta-arrestin readout, dose response (AID 504728). It is filed as functional. On the technique in general: Recruitment of arrestin is a read-out of receptor activation apart from second messengers.
Assay [2] addresses T1, Heat shock factor protein 1 (Mus musculus, UniProt P38532).
T1 sequence (P38532 whole entry): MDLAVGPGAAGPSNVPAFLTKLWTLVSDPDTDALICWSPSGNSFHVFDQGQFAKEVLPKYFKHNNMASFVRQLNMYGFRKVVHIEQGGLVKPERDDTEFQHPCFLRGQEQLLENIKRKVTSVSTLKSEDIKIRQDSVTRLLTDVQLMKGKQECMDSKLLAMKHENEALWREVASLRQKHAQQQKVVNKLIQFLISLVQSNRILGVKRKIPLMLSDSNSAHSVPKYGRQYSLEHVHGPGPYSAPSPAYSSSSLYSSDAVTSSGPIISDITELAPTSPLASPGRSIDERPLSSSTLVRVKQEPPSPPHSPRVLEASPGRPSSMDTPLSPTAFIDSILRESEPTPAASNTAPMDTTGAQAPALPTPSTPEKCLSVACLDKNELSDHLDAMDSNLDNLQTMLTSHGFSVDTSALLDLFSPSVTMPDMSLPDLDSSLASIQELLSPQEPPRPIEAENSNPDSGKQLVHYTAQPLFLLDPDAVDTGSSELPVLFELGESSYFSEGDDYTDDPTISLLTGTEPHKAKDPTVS
Description: decrease of HSF1-responsive luciferase luminescence – cell-based, NIH3T3, dose retest, confirmation (AID 2382).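 Also: NIH3T3 fibroblasts with HSF1-driven luciferase reporter stressed by proteasome inhibitor MG132; luminescence from HSF1-driven luciferase expression after 8 hours of MG132 stress.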 It is filed as functional.

Assay [3] in a line: DRD fibroblast viability loss – cell-based, non-viral oncogenic, luminescence, dose response (AID 1934). It is filed as functional. To be noted: Homo sapiens.
In assay [4] the target is Beta-galactosidase (Escherichia coli, UniProt Q8VNN2). The experiment in a line: detection-enzyme interference by beta-gal modulators – biochemical, E. coli enzyme, set 3, artefact control for CCR6 antagonist project, dose response (AID 504712). It is filed as functional.
Assay [5] in a line: viability of PTEN-deleted HCT116 cells – cell-based, HCT116 PTEN knockout, dose response (AID 1047).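 Also: HCT116 colon tumor cells with PTEN knocked out; cells exposed to compound for 60 hours before readout; potency for loss of cell viability measured by luminescence.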 It is filed as functional.
Assay [6] has as its target Albumin (Bos taurus, UniProt P02769). Description: Counterscreen for inhibitors of T-cell receptor (TCR)-CD3 interaction: Fluorescence-based biochemical high throughput dose response assay to identify inhibitors of T-cell receptor (TCR)-CD3 interaction using a TAMRA-labeled BSA probe. It is filed as functional. For orientation: A counterscreen serves to expose hits that act by an unwanted route or on another target.

The target in assay [7] is Procathepsin L (Homo sapiens, UniProt P07711).
Assay [8] has as its target MAP/microtubule affinity-regulating kinase 3 (Homo sapiens, UniProt P27448). It is filed as functional.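 Also: MARK3 affinity measured as one member of a kinome panel.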
Assay [9] concerns the target cGMP-dependent protein kinase 1 (Homo sapiens, UniProt Q13976). It is filed as functional.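 Also: value from a kinome panel screen with PRKG1 as the panel member.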
The target in assay [10] is Phosphorylase b kinase gamma catalytic chain, liver/testis isoform (Homo sapiens, UniProt P15735). It is filed as functional.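 Also: PHKG2 measured as one member of a kinome-wide kinase panel.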
Assay [11] addresses Focal adhesion kinase 1 (Homo sapiens, UniProt Q05397). It is filed as functional.
In assay [12] the target is Interleukin-1 receptor-associated kinase 1 (Homo sapiens, UniProt P51617). It is filed as functional.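 Also: IRAK1 tested as one member of a kinome panel.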
Assay [13] has as its target Fibroblast growth factor receptor 3 (Homo sapiens, UniProt P22607). It is filed as functional.
Assay [14] has as its target Glycogen synthase kinase-3 beta (Homo sapiens, UniProt P49841). It is filed as functional.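 Also: value comes from a broad kinome profiling panel, with GSK3B as the panel member.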
Assay [15] has as its target Mitogen-activated protein kinase 8 (Homo sapiens, UniProt P45983). It is filed as functional.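 Also: value comes from one member of a kinome-wide kinase profiling panel.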
For assay [16], the target named is Vascular endothelial growth factor receptor 1 (Homo sapiens, UniProt P17948). It is filed as functional.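 Also: measured within a kinome-wide profiling panel, FLT1 as the panel member.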
For assay [17], the target named is BDNF/NT-3 growth factors receptor (Homo sapiens, UniProt Q16620). It is filed as functional.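 Also: NTRK2 measured as one member of a broad kinome-wide kinase profiling panel.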
The target of assay [18] is Death-associated protein kinase 3 (Homo sapiens, UniProt O43293). It is filed as functional.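 Also: measured as one member of a kinome-wide profiling panel.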
Assay [19] concerns the target Proto-oncogene tyrosine-protein kinase ROS (Homo sapiens, UniProt P08922). It is filed as functional.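 Also: ROS1 tested as one member of a kinome-wide kinase panel.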
The target in assay [20] is SRSF protein kinase 1 (Homo sapiens, UniProt Q96SB4). It is filed as functional.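 Also: measured as one member of a kinome-wide kinase profiling panel.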
The target in assay [21] is 3-phosphoinositide-dependent protein kinase 1 (Homo sapiens, UniProt O15530). It is filed as functional.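 Also: value comes from the Navigating the Kinome panel, PDPK1 member.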
In assay [22] the target is Tyrosine-protein kinase Fer (Homo sapiens, UniProt P16591). It is filed as functional.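 Also: FER tested as one member of a kinome panel.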
Assay [23] concerns the target Ribosomal protein S6 kinase alpha-5 (Homo sapiens, UniProt O75582). It is filed as functional.
Assay [24] concerns the target Rho-associated protein kinase 2 (Homo sapiens, UniProt O75116). It is filed as functional.
Assay [25] has as its target 5'-AMP-activated protein kinase catalytic subunit alpha-1 (Homo sapiens, UniProt Q13131). It is filed as functional.
Assay [26] deals with Serine/threonine-protein kinase pim-3 (Homo sapiens, UniProt Q86V86). It is filed as functional.
Assay [27] addresses Interleukin-1 receptor-associated kinase 4 (Homo sapiens, UniProt Q9NWZ3). It is filed as functional.
In assay [28] the target is Tyrosine-protein kinase FRK (Homo sapiens, UniProt P42685). It is filed as functional.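 Also: FRK tested as one member of a kinome panel.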
The target in assay [29] is T2, Sentrin-specific protease 8 (Homo sapiens, UniProt Q96LD8).
T2 sequence (Q96LD8 whole entry): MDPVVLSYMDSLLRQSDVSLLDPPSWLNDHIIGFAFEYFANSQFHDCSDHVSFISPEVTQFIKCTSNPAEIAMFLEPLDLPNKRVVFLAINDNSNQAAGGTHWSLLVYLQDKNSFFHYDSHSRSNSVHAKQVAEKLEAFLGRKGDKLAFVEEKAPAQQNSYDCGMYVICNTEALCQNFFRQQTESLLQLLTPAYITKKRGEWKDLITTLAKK
It is filed as functional.

Assay [30] deals with T3, Caspase-3 (Homo sapiens, UniProt P42574).
T3 sequence (P42574 whole entry): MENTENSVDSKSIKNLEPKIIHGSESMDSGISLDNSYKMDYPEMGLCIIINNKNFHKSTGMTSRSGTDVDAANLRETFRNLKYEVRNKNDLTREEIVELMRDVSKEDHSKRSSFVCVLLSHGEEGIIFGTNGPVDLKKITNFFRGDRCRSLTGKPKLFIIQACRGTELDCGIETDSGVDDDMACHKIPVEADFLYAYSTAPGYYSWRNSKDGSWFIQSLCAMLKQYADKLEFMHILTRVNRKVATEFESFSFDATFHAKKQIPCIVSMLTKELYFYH
Description: Dose-response confirmation of uHTS inhibitor hits of Sentrin-Specific Protease 8 in a Caspase-3 Fluorescence assay. It is filed as functional.

Assay [31] deals with Fatty acid synthase (Homo sapiens, UniProt P49327). The experiment in a line: inhibition of human FAS-TE enzyme activity – biochemical, endpoint fluorescence intensity, uHTS hits, dose response (AID 624327).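 Also: fluorescence from hydrolysis of an O-methyl fluorescein acyl ester substrate by the enzyme.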 It is filed as functional.

Consider five molecules from ChEMBL document CHEMBL1201862, “PubChem BioAssay data set” (2004).

Calls of active or inactive are those of the source. Where only a bound is given, the exact number is not on record here.

As a reminder, the IC50 is the concentration that inhibits the measured activity by half. The EC50 is the concentration giving half of the maximal effect. As a reminder, the Ki is the dissociation constant of the complex between target and ligand, obtained from inhibition or displacement.

Chain of Phosphorylase b kinase gamma catalytic chain, liver/testis isoform (P15735 whole entry, canonical isoform): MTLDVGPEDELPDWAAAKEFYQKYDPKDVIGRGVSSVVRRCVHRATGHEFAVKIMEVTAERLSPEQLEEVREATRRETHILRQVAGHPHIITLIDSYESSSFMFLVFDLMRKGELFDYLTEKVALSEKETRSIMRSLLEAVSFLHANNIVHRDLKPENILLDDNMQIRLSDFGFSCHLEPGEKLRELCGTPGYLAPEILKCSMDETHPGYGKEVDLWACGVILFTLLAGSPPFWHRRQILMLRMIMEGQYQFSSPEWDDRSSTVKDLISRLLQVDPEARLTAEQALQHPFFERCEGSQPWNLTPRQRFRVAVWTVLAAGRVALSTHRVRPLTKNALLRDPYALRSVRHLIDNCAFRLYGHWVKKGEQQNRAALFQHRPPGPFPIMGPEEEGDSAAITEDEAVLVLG
Chain of Fatty acid synthase (P49327 whole entry): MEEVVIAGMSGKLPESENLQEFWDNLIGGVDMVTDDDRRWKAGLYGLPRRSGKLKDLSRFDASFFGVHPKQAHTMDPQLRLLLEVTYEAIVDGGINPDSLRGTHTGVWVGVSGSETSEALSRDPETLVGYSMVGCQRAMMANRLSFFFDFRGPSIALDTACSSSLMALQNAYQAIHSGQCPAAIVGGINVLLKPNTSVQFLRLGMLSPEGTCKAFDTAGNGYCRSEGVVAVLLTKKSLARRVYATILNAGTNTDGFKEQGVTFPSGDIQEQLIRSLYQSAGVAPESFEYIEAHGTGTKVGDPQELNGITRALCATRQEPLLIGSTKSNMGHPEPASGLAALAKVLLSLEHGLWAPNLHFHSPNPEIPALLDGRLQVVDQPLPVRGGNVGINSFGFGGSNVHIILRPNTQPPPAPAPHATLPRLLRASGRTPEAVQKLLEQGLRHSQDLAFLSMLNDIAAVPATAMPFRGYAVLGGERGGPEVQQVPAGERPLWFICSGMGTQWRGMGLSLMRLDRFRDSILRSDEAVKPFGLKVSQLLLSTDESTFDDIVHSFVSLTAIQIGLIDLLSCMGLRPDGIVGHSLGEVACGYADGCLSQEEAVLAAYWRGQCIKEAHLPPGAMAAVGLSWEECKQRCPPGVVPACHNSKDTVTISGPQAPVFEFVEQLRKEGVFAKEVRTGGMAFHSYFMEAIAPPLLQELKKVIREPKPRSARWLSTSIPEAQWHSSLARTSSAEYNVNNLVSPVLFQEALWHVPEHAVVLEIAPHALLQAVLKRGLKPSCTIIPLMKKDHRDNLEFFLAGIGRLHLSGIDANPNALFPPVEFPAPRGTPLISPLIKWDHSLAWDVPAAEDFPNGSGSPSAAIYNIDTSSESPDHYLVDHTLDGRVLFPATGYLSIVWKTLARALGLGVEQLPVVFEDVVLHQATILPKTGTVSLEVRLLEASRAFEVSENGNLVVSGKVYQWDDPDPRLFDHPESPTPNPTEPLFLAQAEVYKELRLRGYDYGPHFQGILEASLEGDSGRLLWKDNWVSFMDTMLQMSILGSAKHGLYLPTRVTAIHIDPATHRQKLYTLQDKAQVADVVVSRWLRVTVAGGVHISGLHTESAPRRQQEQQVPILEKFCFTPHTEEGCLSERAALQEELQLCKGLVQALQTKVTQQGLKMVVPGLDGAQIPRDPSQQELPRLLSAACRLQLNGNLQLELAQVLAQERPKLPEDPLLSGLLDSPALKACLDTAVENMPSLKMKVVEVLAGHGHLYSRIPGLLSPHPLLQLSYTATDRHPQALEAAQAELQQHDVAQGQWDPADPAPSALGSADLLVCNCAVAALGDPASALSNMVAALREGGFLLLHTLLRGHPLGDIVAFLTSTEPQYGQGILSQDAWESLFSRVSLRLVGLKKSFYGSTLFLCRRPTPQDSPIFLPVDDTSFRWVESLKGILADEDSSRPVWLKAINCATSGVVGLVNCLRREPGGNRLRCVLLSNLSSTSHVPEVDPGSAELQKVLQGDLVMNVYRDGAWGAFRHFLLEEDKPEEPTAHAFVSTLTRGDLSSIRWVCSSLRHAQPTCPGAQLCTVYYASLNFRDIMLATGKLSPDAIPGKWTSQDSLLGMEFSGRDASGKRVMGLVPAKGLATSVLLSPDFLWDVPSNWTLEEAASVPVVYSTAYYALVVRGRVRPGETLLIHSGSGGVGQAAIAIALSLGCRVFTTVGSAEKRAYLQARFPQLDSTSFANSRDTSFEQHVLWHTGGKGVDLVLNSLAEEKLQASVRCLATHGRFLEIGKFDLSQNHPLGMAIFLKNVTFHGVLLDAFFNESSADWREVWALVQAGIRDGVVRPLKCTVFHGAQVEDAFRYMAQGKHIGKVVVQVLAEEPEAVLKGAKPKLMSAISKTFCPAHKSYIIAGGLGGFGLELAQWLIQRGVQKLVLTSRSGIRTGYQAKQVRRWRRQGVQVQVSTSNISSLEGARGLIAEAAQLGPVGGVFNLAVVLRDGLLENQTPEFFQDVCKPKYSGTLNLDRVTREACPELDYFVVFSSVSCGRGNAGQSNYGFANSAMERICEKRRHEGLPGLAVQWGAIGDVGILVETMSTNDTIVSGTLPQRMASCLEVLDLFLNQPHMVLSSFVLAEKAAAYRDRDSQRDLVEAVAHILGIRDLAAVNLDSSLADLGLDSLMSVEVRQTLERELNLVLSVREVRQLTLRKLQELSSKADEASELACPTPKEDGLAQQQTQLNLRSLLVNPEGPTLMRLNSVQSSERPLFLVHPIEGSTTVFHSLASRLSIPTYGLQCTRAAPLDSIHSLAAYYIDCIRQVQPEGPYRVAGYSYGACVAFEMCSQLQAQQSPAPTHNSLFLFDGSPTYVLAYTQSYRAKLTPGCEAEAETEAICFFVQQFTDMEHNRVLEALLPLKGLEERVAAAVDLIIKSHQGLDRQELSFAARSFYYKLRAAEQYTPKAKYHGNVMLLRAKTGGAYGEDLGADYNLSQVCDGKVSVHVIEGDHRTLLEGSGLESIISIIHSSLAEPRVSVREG
Chain of Tyrosine-protein kinase FRK (P42685 whole entry): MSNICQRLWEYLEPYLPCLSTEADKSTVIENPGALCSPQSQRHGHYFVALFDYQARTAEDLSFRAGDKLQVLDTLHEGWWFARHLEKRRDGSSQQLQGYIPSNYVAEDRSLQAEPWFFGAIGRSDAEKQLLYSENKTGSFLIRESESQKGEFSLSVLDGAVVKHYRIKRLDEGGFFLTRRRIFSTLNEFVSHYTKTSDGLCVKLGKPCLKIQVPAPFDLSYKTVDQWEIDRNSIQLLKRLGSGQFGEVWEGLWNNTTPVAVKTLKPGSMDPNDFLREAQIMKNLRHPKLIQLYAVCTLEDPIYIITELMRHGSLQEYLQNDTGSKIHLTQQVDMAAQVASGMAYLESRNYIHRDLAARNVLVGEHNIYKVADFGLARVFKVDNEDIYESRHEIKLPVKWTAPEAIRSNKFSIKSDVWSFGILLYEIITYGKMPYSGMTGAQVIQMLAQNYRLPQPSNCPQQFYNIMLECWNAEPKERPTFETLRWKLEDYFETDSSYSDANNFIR
Chain of Vascular endothelial growth factor receptor 1 (P17948 whole entry): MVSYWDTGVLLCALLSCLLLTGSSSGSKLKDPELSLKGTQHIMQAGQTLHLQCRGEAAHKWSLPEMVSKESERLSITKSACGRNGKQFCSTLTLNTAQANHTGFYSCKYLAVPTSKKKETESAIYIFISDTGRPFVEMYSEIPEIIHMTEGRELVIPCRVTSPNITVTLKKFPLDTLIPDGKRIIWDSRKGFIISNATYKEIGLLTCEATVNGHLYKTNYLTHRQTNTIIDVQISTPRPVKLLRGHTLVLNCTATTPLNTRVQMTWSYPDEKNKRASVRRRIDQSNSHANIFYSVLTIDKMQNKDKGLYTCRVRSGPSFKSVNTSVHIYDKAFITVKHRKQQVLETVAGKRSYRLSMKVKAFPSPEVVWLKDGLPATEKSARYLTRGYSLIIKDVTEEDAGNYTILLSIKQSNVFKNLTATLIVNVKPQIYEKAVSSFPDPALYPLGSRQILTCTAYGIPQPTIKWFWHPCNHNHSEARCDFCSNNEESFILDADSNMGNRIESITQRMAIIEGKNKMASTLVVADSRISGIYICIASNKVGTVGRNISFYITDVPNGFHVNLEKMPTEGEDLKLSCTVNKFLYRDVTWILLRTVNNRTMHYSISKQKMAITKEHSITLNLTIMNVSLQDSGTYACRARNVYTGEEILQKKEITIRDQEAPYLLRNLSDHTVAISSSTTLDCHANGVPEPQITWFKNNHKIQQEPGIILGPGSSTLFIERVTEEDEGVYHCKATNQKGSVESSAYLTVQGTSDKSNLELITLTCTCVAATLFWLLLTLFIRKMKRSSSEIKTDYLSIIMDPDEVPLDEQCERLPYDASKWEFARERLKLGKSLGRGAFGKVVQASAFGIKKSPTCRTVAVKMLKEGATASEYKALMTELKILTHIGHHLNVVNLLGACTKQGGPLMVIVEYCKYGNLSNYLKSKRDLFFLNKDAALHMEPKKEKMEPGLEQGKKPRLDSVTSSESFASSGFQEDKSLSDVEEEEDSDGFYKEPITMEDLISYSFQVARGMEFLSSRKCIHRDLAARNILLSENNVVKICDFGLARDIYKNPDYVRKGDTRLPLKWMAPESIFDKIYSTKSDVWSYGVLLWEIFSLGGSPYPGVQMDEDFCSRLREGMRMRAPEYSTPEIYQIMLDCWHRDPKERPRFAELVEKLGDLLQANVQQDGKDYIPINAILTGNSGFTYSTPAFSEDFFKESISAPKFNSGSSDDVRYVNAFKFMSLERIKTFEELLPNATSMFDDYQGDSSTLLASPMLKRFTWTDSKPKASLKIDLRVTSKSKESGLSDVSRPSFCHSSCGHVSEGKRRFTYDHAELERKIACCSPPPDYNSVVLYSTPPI

On to `Cc1ccc(NC2=C/C(=N\S(=O)(=O)c3cccs3)c3ccccc3C2=O)c(C)c1`, for which the IC50 in assay [1] and in assay [4] was > 66600 nM (inactive) in each case. For the same molecule, the EC50 was 1560 nM (active) in assay [2], 5140 nM (active) in assay [3] and 1100 nM (active) in assay [5].
`Oc1ccc(-c2cn3c(n2)SCC3)cc1O`: the IC50 in [6] was > 94100 nM (inactive); in assay [7], > 59600 nM (not active).
As to `O=C1Nc2ccc3ncsc3c2C1=CNc1ccc(S(=O)(=O)Nc2ccccn2)cc1`, the Ki in assay [8] was 39.8 nM (active); in assay [9] it was 126 nM (active); in assay [10], 158 nM (active); in assay [11], > 1580 nM (inactive); in assay [12] it was 20 nM (active); in assay [13], 12.6 nM (active). Also, the inhibitory constant (Ki) in assay [14] is 3.16 nM (active); in assay [15], 126 nM (active); in assay [16], 10 nM (active); in assay [17] it was 79.4 nM (active); in [18], 79.4 nM (active); in assay [19] it was > 2000 nM (inactive). Moreover, the Ki in assay [20] was 1000 nM (active); in assay [21] it was 15.8 nM (active); in [22] it was 1260 nM (active); in [23], 794 nM (active); in assay [24], 50.1 nM (active); in assay [25], 3.98 nM (active). Also, the Ki was 1260 nM (active) in [26], 1580 nM (active) in assay [27] and 31.6 nM (active) in [28].
Regarding `COc1ccc(/C=N/NC(=O)c2nn(-c3ccccc3)c(=O)c3c(N)scc23)cc1`, the 50% inhibitory concentration (IC50) in assay [29] was 346 nM (active); in assay [30] it was 2150 nM (active).
Take `CC(=O)N(C1=C(Cl)C(=O)c2ccccc2C1=O)C1CCCCC1`: the IC50 in assay [31] was 3020 nM (active).
